Experimental data taken from patent US9221814B2, “Heterocyclic guanidine F1F0-atpase inhibitors and therapeutic uses thereof” (Lycera Corporation, priority 2012, dated 2015).
Read-outs that look alike come from different tables or passages of the source.

How the values were obtained:
F1F0-ATPase = target: T1, F1F0-ATPase (Bos taurus, UniProt P13621); assay: Inhibition of F1F0-ATPase activity in synthesizing ATP (ATP synthesis inhibition); type: biochemical; conditions: detection limit IC50=16 μM, read-out: ATP Syn IC50
T1 construct: from tissue
Procedure: (§1) Exemplary compounds described in above Examples were tested for activity against F1F0-ATPase by measuring the ability of the compounds to inhibit ATP synthesis. In addition, the compounds were assessed for cytotoxicity in Ramos cells. Inhibition of F1F0-ATPase activity in synthesizing ATP and cytotoxicity in Ramos cells were measured according to the procedures described in K. M. Johnson et al. Chemistry & Biology 2005, 12, 485-496.

Ramos cells = assay: Cytotoxicity in Ramos cells; type: cell-based; conditions: detection limit EC50=16 μM, read-out: Ramos Cell EC50
Procedure: as §1

IC50 (F1F0-ATPase) [µM] | SMILES | EC50 (Ramos cells; Homo sapiens) [µM] | EC50 (Ramos cells) [µM]
< 5 | Cc1cc(C(=O)/N=C(/Nc2cc(F)cc(Cl)c2)Nc2c(C)c(C(F)(F)F)nn2CCO)on1 [Compound A-226] | 5 to 16 | 
< 5 | CC(C)CN/C(=N/C(=O)c1cn(C)nc1C(F)(F)F)Nc1cc(-c2cc(O)ccc2F)n[nH]1 [Compound A-179] |  | > 16
> 16 | COC[C@H](C)N/C(=N/C(=O)c1cn(C)nc1C(F)(F)F)Nc1cc(-c2ccc(O)cc2F)n[nH]1 [Compound A-140] |  | > 16
5 to 16 | Cc1oncc1C(=O)/N=C(\Nc1cc(-c2cc(F)cc(F)c2)n[nH]1)NC(C)C [Compound A-77] |  | > 16
> 16 | Cc1nc(C(=O)/N=C(\Nc2cc(-c3ccc(F)cc3)n[nH]2)NC(C)(C)C)c(C)o1 [Compound A-191] |  | > 16
< 5 | Cn1cc(C(=O)/N=C(/Nc2ccc(F)c(F)c2)Nc2cc(-c3ccc(O)c(F)c3)n[nH]2)c(C(F)(F)F)n1 [Compound A-176] |  | < 5
< 5 | CC(C)CN/C(=N/C(=O)c1cn(C)nc1C(F)(F)F)Nc1n[nH]c2cc(Cl)ccc12 [Compound A-201] |  | > 16
< 5 | Cc1oncc1C(=O)/N=C(\Nc1cc(-c2ccc(Cl)cc2)n[nH]1)NC(C)(C)C [Compound A-68] |  | < 5
5 to 16 | CSc1ccc(N/C(=N\C(=O)c2cn(C)nc2C(F)(F)F)Nc2cc(-c3ccc(O)cc3F)n[nH]2)cc1 [Compound A-8] |  | < 5
< 5 | Cc1nc(C(=O)/N=C(\Nc2cc(-c3ccc(F)cc3)[nH]n2)NC(C)(C)C)c(C(F)(F)F)o1 [Compound A-119] |  | 5 to 16
< 5 | CC(C)CNC(=NC(=O)c1cn(C)nc1C(F)(F)F)Nc1cc(-c2cc(O)ccc2Cl)n[nH]1 [Compound A-182] | 5 to 16 | 
< 5 | Cc1ccc(-c2cc(N/C(=N\C(=O)c3cnoc3C)NC(C)(C)C)[nH]n2)cc1F [Compound A-93] |  | < 5
< 5 | CCOCCCN/C(=N\C(=O)c1cn(C)nc1C(F)(F)F)Nc1cc(-c2cc(F)cc(F)c2)n[nH]1 [Compound A-29] |  | < 5
< 5 | Cc1cc(C(=O)/N=C(\Nc2ccc(C(F)(F)F)nc2)Nc2cccc(Cl)c2)n(C)n1 [Compound A-230] | < 5 | 
< 5 | Cc1oncc1C(=O)/N=C(\Nc1cc(-c2cc(F)cc(F)c2)n[nH]1)NC1CCCC1 [Compound A-78] |  | > 16
< 5 | Cc1oncc1C(=O)/N=C(\Nc1cc(-c2cc(F)cc(F)c2)n[nH]1)NC(C)(C)C [Compound A-87] |  | < 5
5 to 16 | CC(C)CN/C(=N/C(=O)c1cn(C)nc1C(F)(F)F)Nc1cc(-c2ccc(O)c(F)c2)n[nH]1 [Compound 3, N-(((3-(3-Fluoro-4-hydroxyphenyl)-1H-pyrazol-5-yl)amino)(isobutylamino)methylene)-1-methyl-3-(trifluoromethyl)-1H-pyrazole-4-carboxamide] | > 16 | 
5 to 16 | Cc1cc(N/C(=N\C(=O)c2cc(C)oc2C(F)(F)F)NCC(C)(C)C)n[nH]1 [Compound A-110] |  | > 16
5 to 16 | COc1ccc(F)c(-c2cc(N/C(=N\C(=O)c3cn(C)nc3C(F)(F)F)NC(C)(C)C)n[nH]2)c1 [Compound A-145] |  | 5 to 16
< 5 | Cc1cc(F)ccc1N/C(=N/C(=O)c1cn(C)nc1C(F)(F)F)Nc1cc(-c2ccc(O)c(F)c2)n[nH]1 [Compound A-173] |  | < 5
> 16 | Cc1oncc1C(=O)/N=C(/NCC(C)C)Nc1cc(-c2ccc(F)cc2)[nH]n1 [Compound A-123] |  | > 16

SMILES | IC50 (F1F0-ATPase) [µM] | EC50 (Ramos cells; Homo sapiens) [µM] | EC50 (Ramos cells) [µM]
CCOC(=O)NC1CCCC(N/C(=N\C(=O)c2cc(C)oc2C(F)(F)F)Nc2cccc(F)c2)C1 (centres unmarked) [Compound 2, Ethyl (3-(3-(3-fluorophenyl)-2-(5-methyl-2-(trifluoromethyl)furan-3-carbonyl)guanidino)cyclohexyl)carbamate] | > 16 | 5 to 16 | 
